Source: patent publication US20090137549A1, “Novel compounds useful for the treatment of degenerative & inflamatory diseases” (priority 2006, published 2009)

Target: PDE1A (Homo sapiens, UniProt P54750)
Test: PDE1A dose response, Cyclic Nucleotide Phosphodiesterase Assay Kit from Biomol (colorimetric)
Assay type: biochemical
Conditions: purified PDE1A enzyme, 100 μM cAMP
Source text: For the dose response and further screening, we used the Cyclic Nucleotide
Phosphodiesterase Assay Kit from Biomol, a colorimetric, non-radioactive assay. The basis for the assay is the cleavage of cAMP by PDE1A. The 5′AMP is further cleaved into the nucleoside and phosphate by the enzyme 5′-nucleotidase (catnr KI-307). The phosphate released due to enzymatic cleavage is quantified using BIOMOL GREEN™ reagent (catnr AK-111) in a modified Malachite Green assay^1,2. A PDE1A inhibitor will result in a decrease of the signal.
For the enzymatic reaction a mix of 25 μL with purified PDE1A enzyme, 100 μM cAMP, 5′Nucleotidase and the compound is made in a clear 384-plate. The reaction buffer is Tris 20 mM pH 7.4, 4 μg/mL calmodulin, 3 mM MgCl2, 1.5 mM CaCl2, 0.2 mg/mL BSA and 0.001% Brij-35. After an incubation of 45 minutes at 37° C., the reaction is stopped by the addition of 50 μL BIOMOL GREEN™ reagent. After 30 minutes incubation at room temperature, the readout is performed on the Envision (absorption at 615 nm).
All compounds are tested in duplicate starting from […] followed by a 1/3 serial dilution, 8 points (20 μM-6.67 μM-2.22 μM-740 nM-247 nM-82 nM-27 nM-9 nM) in a final concentration of 1% DMSO. As the positive dose response control compound Vardenafil is used. For the calculation of z′ and PIN values 10 μM Vardenafil is used as positive control (100% inhibition) and 1% DMSO as negative control (0% inhibition).
The following compounds have been or can be prepared according to the synthetic methods described above. For the purpose of Table 7 below, PDE1A activity of each compound, which can be determined using the assay methods described herein, is expressed as follows: […]

| SMILES | IC50 [nM] |
| --- | --- |
| Cn1c(N2CC(c3nc4c(cnn4C4CCCCC4)c(=O)[nH]3)C2)nc2ccccc21 [Example 131, 1-cyclohexyl-6-(1-(1-methyl-1H-benzo[d]imidazol-2-yl)azetidin-3-yl)-1H-pyrazolo[3,4-d]pyrimidin-4(5H)-one] | 501 to 1000 |
| CC(C)(C)n1ncc2c(=O)[nH]c(C3CN(c4nc5ccc(Br)cc5[nH]4)C3)nc21 [Example 126, 6-(1-(6-bromo-1H-benzo[d]imidazol-2-yl)azetidin-3-yl)-1-tert-butyl-1H-pyrazolo[3,4-d]pyrimidin-4(5H)-one] | 1 to 100 |
| O=C(Nc1ccccc1)N1CC(c2nc3c(cnn3C3CCCCC3)c(=O)[nH]2)C1 [Example 11, 3-(1-cyclohexyl-4-oxo-4,5-dihydro-1H-pyrazolo[3,4-d]pyrimidin-6-yl)-N-phenylazetidine-1-carboxamide] | 1 to 100 |
| CC(C)(C)n1ncc2c(=O)[nH]c(C3CN(c4ccc(CN5CCOCC5)cc4)C3)nc21 [Example 164, 1-tert-Butyl-6-[1-(4-morpholin-4-ylmethyl-phenyl)-azetidin-3-yl]-1,5-dihydro-pyrazolo[3,4-d]pyrimidin-4-one] | 1 to 100 |
| Cc1nn(C2CCCCC2)c2nc(C3CCCN(C(=O)c4cccn4C)C3)[nH]c(=O)c12 (centres unmarked) [Example 95, 1-cyclohexyl-3-methyl-6-(1-(1-methyl-1H-pyrrole-2-carbonyl)piperidin-3-yl)-1H-pyrazolo[3,4-d]pyrimidin-4(5H)-one] | 501 to 1000 |
| O=c1[nH]c(C2CN(c3nc4ccccc4s3)C2)nc2c1cnn2C1CCCCC1 [Example 129, 6-(1-(benzo[d]thiazol-2-yl)azetidin-3-yl)-1-cyclohexyl-1H-pyrazolo[3,4-d]pyrimidin-4(5H)-one] | 101 to 500 |
| O=c1[nH]c(C2CN(c3nc(-c4ccccc4)c(CN4CCOCC4)s3)C2)nc2c1cnn2C1CCCCC1 [Example 162, 1-Cyclohexyl-6-(1-(5-morpholin-4-ylmethyl-4-phenylthiazol-2-yl)azetidin-3-yl)-1H-pyrazolo[3,4-d]pyrimidin-4-(5H)-one] | 1 to 100 |
| Cc1nn(C2CCCCC2)c2nc(C3CCCN(C(=O)c4cccc5c4OC(F)(F)O5)C3)[nH]c(=O)c12 (centres unmarked) [Example 58, 1-cyclohexyl-6-(1-(2,2-difluorobenzo[d][1,3]dioxole-4-carbonyl)piperidin-3-yl)-3-methyl-1H-pyrazolo[3,4-d]pyrimidin-4(5H)-one] | 101 to 500 |
| COc1ccc(S(=O)(=O)N2CCCC(c3nc4c(c(C)nn4C4CCCCC4)c(=O)[nH]3)C2)cc1 (centres unmarked) [Example 56, 1-cyclohexyl-6-(1-(4-methoxyphenylsulfonyl)piperidin-3-yl)-3-methyl-1H-pyrazolo[3,4-d]pyrimidin-4(5H)-one] | 101 to 500 |
| CC(C)N1CCN(c2ccc(NC(=O)N3CC(c4nc5c(cnn5C5CCCCC5)c(=O)[nH]4)C3)cc2)CC1 [Example 2, 3-(1-Cyclohexyl-4-oxo-4,5-dihydro-1H-pyrazolo[3,4-d]pyrimidin-6-yl)-N-(4-(4-isopropylpiperazin-1-yl)phenyl)azetidine-1-carboxamide] | 1 to 100 |
| Cc1ccccc1C(=O)N1CCCC(c2nc3c(c(C)nn3C3CCCCC3)c(=O)[nH]2)C1 (centres unmarked) [Example 87, 1-cyclohexyl-3-methyl-6-(1-(2-methylbenzoyl)piperidin-3-yl)-1H-pyrazolo[3,4-d]pyrimidin-4(5H)-one] | 501 to 1000 |
| Cc1nn(-c2ccc(F)cc2)c2nc(C3CN(C(=O)NC4CCCCC4)C3)[nH]c(=O)c12 [Example 50, N-cyclohexyl-3-(1-(4-fluorophenyl)-3-methyl-4-oxo-4,5-dihydro-1H-pyrazolo[3,4-d]pyrimidin-6-yl)azetidine-1-carboxamide] | 101 to 500 |
| Cc1nn(C2CCCCC2)c2nc(C3CCCN(C(=O)c4cccc(NS(C)(=O)=O)c4)C3)[nH]c(=O)c12 (centres unmarked) [Example 64, N-(3-(3-(1-cyclohexyl-3-methyl-4-oxo-4,5-dihydro-1H-pyrazolo[3,4-d]pyrimidin-6-yl)piperidine-1-carbonyl)phenyl)methanesulfonamide] | 101 to 500 |
| Cc1nn(C2CCCCC2)c2nc(C3CCCN(S(=O)(=O)c4ccccc4)C3)[nH]c(=O)c12 (centres unmarked) [Example 106, 1-cyclohexyl-3-methyl-6-(1-(phenylsulfonyl)piperidin-3-yl)-1H-pyrazolo[3,4-d]pyrimidin-4(5H)-one] | 1000 to 1500 |
| CC(C)(C)n1ncc2c(=O)[nH]c(C3CN(c4nccs4)C3)nc21 [Example 141, 1-tert-butyl-6-(1-(thiazol-2-yl)azetidin-3-yl)-1H-pyrazolo[3,4-d]pyrimidin-4(5H)-one] | 501 to 1000 |
| O=c1[nH]c(C2CN(c3nnc(-c4ccccc4)[nH]3)C2)nc2c1cnn2C1CCCCC1 [Example 158, 1-Cyclohexyl-6-(1-(5-phenyl-4H-1,2,4-triazol-3-yl)azetidin-3-yl)-1H-pyrazolo[3,4-d]pyrimidin-4-(5H)-one] | 1 to 100 |
| CS(=O)(=O)N1CCC(NC(=O)N2CC(c3nc4c(cnn4C4CCCCC4)c(=O)[nH]3)C2)CC1 [Example 40, 3-(1-cyclohexyl-4-oxo-4,5-dihydro-1H-pyrazolo[3,4-d]pyrimidin-6-yl)-N-(1-(methylsulfonyl)piperidin-4-yl)azetidine-1-carboxamide] | 1 to 100 |
| Cc1nn(C2CCCCC2)c2nc(C3CCCN(C(=O)c4ccc(C(F)(F)F)cc4)C3)[nH]c(=O)c12 (centres unmarked) [Example 96, 1-cyclohexyl-3-methyl-6-(1-(4-(trifluoromethyl)benzoyl)piperidin-3-yl)-1H-pyrazolo[3,4-d]pyrimidin-4(5H)-one] | 501 to 1000 |
| Cc1ccc(S(=O)(=O)N2CCCC(c3nc4c(c(C)nn4C4CCCCC4)c(=O)[nH]3)C2)cc1 (centres unmarked) [Example 86, 1-cyclohexyl-3-methyl-6-(1-(p-tolylsulfonyl)piperidin-3-yl)-1H-pyrazolo[3,4-d]pyrimidin-4(5H)-one] | 501 to 1000 |
| O=c1[nH]c(C2CCCN(c3ccc(C(F)(F)F)cn3)C2)nc2c1cnn2C1CCCCC1 (centres unmarked) [Example 154, 1-cyclohexyl-6-(1-(5-(trifluoromethyl)pyridin-2-yl)piperidin-3-yl)-1H-pyrazolo[3,4-d]pyrimidin-4(5H)-one] | 1000 to 1500 |
| O=C(Nc1ccc(OC(F)(F)F)cc1)N1CC(c2nc3c(cnn3C3CCCCC3)c(=O)[nH]2)C1 [Example 25, 3-(1-cyclohexyl-4-oxo-4,5-dihydro-1H-pyrazolo[3,4-d]pyrimidin-6-yl)-N-(4-(trifluoromethoxy)phenyl)azetidine-1-carboxamide] | 1 to 100 |
| CC(C)N1CCN(c2ccc(-c3csc(N4CC(c5nc6c(cnn6C6CCCCC6)c(=O)[nH]5)C4)n3)cc2)CC1 [Example 161, 1-Cyclohexyl-6-(1-(4-(4-(4-isopropylpiperazin-1-yl)phenyl)thiazol-2-yl)azetidin-3-yl)-1H-pyrazolo[3,4-d]pyrimidin-4-(5H)-one] | 1 to 100 |
| CC(C)(C)OC(=O)N1CCCC(NC(=O)N2CC(c3nc4c(cnn4C4CCCCC4)c(=O)[nH]3)C2)C1 (centres unmarked) [Example 26, tert-butyl 3-(3-(1-cyclohexyl-4-oxo-4,5-dihydro-1H-pyrazolo[3,4-d]pyrimidin-6-yl)azetidine-1-carboxamido)piperidine-1-carboxylate] | 1 to 100 |
| O=C(OCC1CCCCC1)N1CC(c2nc3c(cnn3C3CCCCC3)c(=O)[nH]2)C1 [Example 120, cyclohexylmethyl 3-(1-cyclohexyl-4-oxo-4,5-dihydro-1H-pyrazolo[3,4-d]pyrimidin-6-yl)azetidine-1-carboxylate] | 1 to 100 |
| Cc1nn(C2CCCCC2)c2nc(C3CN(C(=O)N[C@@H](C)c4ccccc4)C3)[nH]c(=O)c12 [Example 42, (S)-3-(1-cyclohexyl-3-methyl-4-oxo-4,5-dihydro-1H-pyrazolo[3,4-d]pyrimidin-6-yl)-N-(1-phenylethyl)azetidine-1-carboxamide] | 1 to 100 |
| COC(=O)c1cccc(C(=O)N2CCCC(c3nc4c(c(C)nn4C4CCCCC4)c(=O)[nH]3)C2)c1 (centres unmarked) [Example 73, methyl 3-(3-(1-cyclohexyl-3-methyl-4-oxo-4,5-dihydro-1H-pyrazolo[3,4-d]pyrimidin-6-yl)piperidine-1-carbonyl)benzaate] | 101 to 500 |
| O=c1[nH]c(C2CN(c3ncc(-c4ccccc4)o3)C2)nc2c1cnn2C1CCCCC1 [Example 136, 1-cyclohexyl-6-(1-(5-phenyloxazol-2-yl)azetidin-3-yl)-1H-pyrazolo[3,4-d]pyrimidin-4(5H)-one] | 101 to 500 |
| COc1ccc(OC)c(S(=O)(=O)N2CCCC(c3nc4c(cnn4C4CCCCC4)c(=O)[nH]3)C2)c1 (centres unmarked) [Example 63, 1-cyclohexyl-6-(1-(2,5-dimethoxyphenylsulfonyl)piperidin-3-yl)-1H-pyrazolo[3,4-d]pyrimidin-4(5H)-one] | 101 to 500 |
| O=C(NCCC(F)(F)F)N1CC(c2nc3c(cnn3C3CCCCC3)c(=O)[nH]2)C1 [Example 43, 3-(1-cyclohexyl-4-oxo-4,5-dihydro-1H-pyrazolo[3,4-d]pyrimidin-6-yl)-N-(3,3,3-trifluoropropyl)azetidine-1-carboxamide] | 1 to 100 |
